{
  "source": "patent US8034926B2",
  "about": "(Abbott Laboratories, priority 2007, dated 2011)",
  "key": {"[1]": {"assay": "pharmacokinetics after a single intravenous dose in cynomolgus monkey", "details": "in vivo, 2.5 mg/kg"}, "[2]": {"system": "neointimal formation in porcine coronary arteries containing stents", "assay": "porcine coronary stent model, histomorphometry at 28 days", "type": "in vivo", "source_text": "The control stents are polymer-coated without drugs. This is important, for the polymer itself must not stimulate neointimal hyperplasia to a substantial degree. As the eluted drug disappears, an inflammatory response to the polymer could conceivably result in a late “catch-up phenomenon” where the restenosis process is not stopped, but instead slowed. This phenomenon would result in restenosis at late dates in human subjects.\nStems were implanted in two blood vessels in each pig. Pigs used in this model were generally 2-4 months old and weighed 30-40 kg. Two coronary stents were thus implanted in each pig by visually assessing a “normal” stent:artery ratio of 1.1-1.2.\nBeginning on the day of the procedure, pigs were given oral aspirin (325 mg daily) and continued for the remainder of their course. General anesthesia was achieved by means of intramuscular injection followed by intravenous ketamine (30 mg/kg) and xylazine (3 mg/kg). Additional medication at the time of induction included atropine (1 mg) and flocillin (1 g) administered intramuscularly. During the stenting procedure, an intraarterial bolus of 10,000 units of heparin was administered.\nArterial access was obtained by cutdown on the right external carotid and placement of an 8F sheath. After the procedure, the animals were maintained on a normal diet without cholesterol or other special supplementation.\nThe BiodivYsio stent was used with nominal vessel target size of 3.0 mm. Two coronary arteries per pig were assigned at random to deployment of the stents. The stent was either a drug eluting stent (polymer plus drug stent) or a stent coated with a polymer only (polymer only stent). The stents were delivered by means of standard guide catheters and wires. The stent balloons were inflated to appropriate sizes for less than 30 seconds.\nEach pig had one polymer only stent and one polymer plus drug stent placed in separate coronary arteries, so that each pig would have one stent for drug and one for control. A sample size of 20 pigs total was chosen to detect a projected difference in neointimal thickness of 0.2 mm with a standard deviation of 0.15 mm, at a power of 0.95 and […] 0.02.\nAnimals were euthanized at 28 days for histopathologic examination and quantification. Following removal of the heart from the perfusion pump system, the left atrial appendage was removed for access to the proximal coronary arteries. Coronary arterial segments with injuries were dissected free of the epicardium. Segments containing lesions were isolated, thereby allowing sufficient tissue to contain uninvolved blood vessel at either end. […]\nThe severity of vessel injury and the neointimal response were measured by calibrated digital microscopy. […]"}, "[3]": {"assay": "release of drug from PC polymer-coated 316 L stainless steel coupons", "type": "physicochemical", "details": "PC polymer-coated 316 L coupon", "source_text": "Rubber septa from lids from HPLC vials were removed from the vials and placed into glass vials so that the “Teflon” side faced up. These septa served as supports for the test samples. The test samples were 316 L, stainless steel coupons that had been previously coated with a biocompatible polymer containing phosphorylcholine side groups (PC polymer). Coronary stents are commonly made of 316 L stainless steel and can be coated with the PC polymer to provide a depot site for loading drugs. The coated coupons, which serve to simulate stents, were placed onto the septa. By using a glass Hamilton Syringe, a solution of A-179578 and ethanol (10 μl) was applied to the surface of each coupon. The solution contained A-179578 (30.6 mg) dissolved in 100% ethanol (3.0 ml). The syringe was cleaned with ethanol between each application. The cap to the glass vial was placed on the vial loosely, thereby assuring proper ventilation. The coupon was allowed to dry for a minimum of 1.5 hours. Twelve (12) coupons were loaded in this way, six being used to determine the average amount of drug loaded onto the device and six being used to measure the time needed to release the drug from the devices.\nThe coupon was placed onto a 5210 Branson sonicator for one hour. The coupon was then removed from the solution, and the solution was assayed by HPLC.\nThe time release studies were performed by immersing and removing the individual coupons from fresh aliquots (10.0 ml) of 0.01 M phosphate buffer at a pH of 6.0 at each of the following time intervals; 5, 15, 30 and 60 minutes. For the remaining time points of 120, 180, 240, 300, 360 minutes, volumes of 5.0 ml of buffer were used. To facilitate mixing during the drug release phase, the samples were placed onto a Eberbach shaker set at low speed. All solution aliquots were assayed by HPLC after the testing of the last sample was completed.\nThe HPLC analysis was performed with a Hewlett Packard series 1100 instrument having the following settings: Injection Volume is 100 μl; Acquisition Time is 40 minutes; Flow Rate is 1.0 ml/min; Column Temperature is 40 degrees Celsius; Wavelength is 278 nm; Mobile Phase is 65% Acetonitrile/35% H20; and Column is YMC ODS-A S5 μm, 4.6×250 mm (Part No. Al2052546WT)."}, "[4]": {"assay": "loading and release of drug from 15 mm BiodivYsio drug delivery stents", "type": "physicochemical", "details": "15 mm BiodivYsio stent", "protocol": "Twelve individual polymer-coated stents were placed on fixtures designed to hold the stent in a vertical position and the stents were immersed vertically in the drug solution for five minutes. The stents and fixtures were removed from the vials and excess drug solution was blotted away by contacting the stents with an absorbant material. The stents were then allowed to dry in air for 30 minutes in an inverted vertical position.\nThe stents were removed from the fixtures, and each stent was placed into 50/50 acetonitrile/phosphate buffer (pH 5.1, 2.0 ml) and sonicated for one hour. The stems were removed from the solution and solutions were assayed for concentration of drug, which allowed calculation of the amount of drug originally on the stents. This method was independently shown to remove at least 95% of the drug from the stent coating. On average, the stents contained 60 micrograms of drug±20 micrograms.\nThe drug-loaded stents were placed on the fixtures and placed into 0.01 M phosphate buffer (pH=6.0, 1.9 ml) in individual vials. These samples were placed onto an Eberbach shaker set at low speed to provide back-and-forth agitation. To avoid approaching drug saturation in the buffer, the stents were transferred periodically to fresh buffer vials at the following points: 15, 30, 45, 60, 120, 135, 150, 165, 180, 240, 390 minutes. The dissolution buffer vials were assayed by HPLC for the drug concentration at the end of the drug release period studied. The data, represented as % cumulative release of the drug as a function of time, is shown in tabular form below: […]"}, "[5]": {"system": "neointima formation in the coronary arteries of adult miniature swine", "assay": "swine safety and efficacy study of drug dosages on in-stent neointima formation", "type": "in vivo, Yucatan miniature swine", "protocol": "The purpose of this example was to evaluate the safety and efficacy of different drug dosages on neointima formation. Drug was delivered from the BiodivYsio OC stent (15 mm) coated with AST-578. In-stent neointima formation was measured at […]; 3 days, 1 month, and 3 months in the coronary arteries of adult miniature swine. Forty (40) animals were studied at each time interval (10 animals per dose). Each animal received one drug-coated stent and one control stent. The control stent contained no drug.\nPotential local tissue toxicity was assessed at all time intervals by examining histopathologic changes in the stented region, adjacent coronary segments, perivascular tissue, and subserved myocardium. The mortality, angiographic implant and restudy data, histomorphometry data, and stent site histopathology were studied."}, "[6]": {"details": "porcine coronary arteries, 28 days"}},
  "note": "Entries after “also recorded” stand apart in the source; their conditions may differ.",
  "data": [
    {"molecule": "COC1CC2CCC(C)C(O)(O2)C(=O)C(=O)N2CCCCC2C(=O)OC(C(C)CC2CCC(n3ccc(=O)cc3)C(OC)C2)CC(=O)C(C)C=C(C)C(O)C(OC)C(=O)C(C)CC(C)C=CC=CC=C1C", "note": "(stereo not drawn) [Example 4-pyridone, 40-epi-N-[4′-pyridone]-rapamycin]", "values": [
      {"measurement": "AUC", "setting": "[1]", "value": 5590, "unit": "ng·h/mL"}
    ]},
    {"molecule": "COC1CC2CCC(C)C(O)(O2)C(=O)C(=O)N2CCCCC2C(=O)OC(C(C)CC2CCC(n3cnnn3)C(OC)C2)CC(=O)C(C)C=C(C)C(O)C(OC)C(=O)C(C)CC(C)C=CC=CC=C1C", "note": "(centres unmarked) [ABT-578, 42-(1-tetrazolyl)-rapamycin]", "values": [
      {"measurement": "lumen area vs polymer only stent", "setting": "[2]; [6]", "value": "greater lumen area"},
      {"measurement": "neointimal area vs polymer only stent", "setting": "[2]; [6]", "value": "lower neointimal area"},
      {"measurement": "neointimal thickness vs polymer only stent", "setting": "[2]; [6]", "value": "lower neointimal thickness"},
      {"measurement": "neointimal hyperplasia", "setting": "[2]; stent with polymer in porcine coronary artery", "value": "reduction in neointimal hyperplasia"},
      {"measurement": "Percent Release", "setting": "[3]; 0.01 M phosphate buffer pH 6.0, 0.00 min", "value": 0.00, "unit": "%"},
      {"measurement": "Percent Release", "setting": "[3]; 0.01 M phosphate buffer pH 6.0, 5.00 min", "value": 1.87, "unit": "%"},
      {"measurement": "Percent Release", "setting": "[3]; 0.01 M phosphate buffer pH 6.0, 15.00 min", "value": 2.97, "unit": "%"},
      {"measurement": "Percent Release", "setting": "[3]; 0.01 M phosphate buffer pH 6.0, 30.00 min", "value": 3.24, "unit": "%"},
      {"measurement": "Percent Release", "setting": "[3]; 0.01 M phosphate buffer pH 6.0, 60.00 min", "value": 3.29, "unit": "%"},
      {"measurement": "Percent Release", "setting": "[3]; 0.01 M phosphate buffer pH 6.0, 180.00 min", "value": 4.36, "unit": "%"},
      {"measurement": "Percent Release", "setting": "[3]; 0.01 M phosphate buffer pH 6.0, 240.00 min", "value": 4.37, "unit": "%"},
      {"measurement": "Percent Release", "setting": "[3]; 0.01 M phosphate buffer pH 6.0, 300.00 min", "value": 6.34, "unit": "%"},
      {"measurement": "Percent Release", "setting": "[3]; 0.01 M phosphate buffer pH 6.0, 360.00 min", "value": 7.88, "unit": "%"}
    ]},
    {"molecule": "CO[C@H]1C[C@@H]2CC[C@@H](C)[C@@](O)(O2)C(=O)C(=O)N2CCCC[C@H]2C(=O)O[C@H]([C@H](C)C[C@@H]2CC[C@H](n3cnnn3)[C@H](OC)C2)CC(=O)[C@H](C)/C=C(\\C)[C@@H](O)[C@@H](OC)C(=O)[C@H](C)C[C@H](C)/C=C/C=C/C=C/1C", "note": "[ABT-578, 42-(1-tetrazolyl)-rapamycin]", "values": [
      {"measurement": "% Cumulative Release of Drug", "setting": "[4]; 0.01 M phosphate buffer pH 6.0, 15 min", "value": 0.3, "unit": "%"},
      {"measurement": "% Cumulative Release of Drug", "setting": "[4]; 0.01 M phosphate buffer pH 6.0, 30 min", "value": 1.1, "unit": "%"},
      {"measurement": "% Cumulative Release of Drug", "setting": "[4]; 0.01 M phosphate buffer pH 6.0, 45 min", "value": 2.1, "unit": "%"},
      {"measurement": "% Cumulative Release of Drug", "setting": "[4]; 0.01 M phosphate buffer pH 6.0, 60 min", "value": 3.2, "unit": "%"},
      {"measurement": "% Cumulative Release of Drug", "setting": "[4]; 0.01 M phosphate buffer pH 6.0, 120 min", "value": 4.3, "unit": "%"},
      {"measurement": "% Cumulative Release of Drug", "setting": "[4]; 0.01 M phosphate buffer pH 6.0, 135 min", "value": 5.9, "unit": "%"},
      {"measurement": "% Cumulative Release of Drug", "setting": "[4]; 0.01 M phosphate buffer pH 6.0, 150 min", "value": 6.3, "unit": "%"},
      {"measurement": "% Cumulative Release of Drug", "setting": "[4]; 0.01 M phosphate buffer pH 6.0, 165 min", "value": 6.8, "unit": "%"},
      {"measurement": "% Cumulative Release of Drug", "setting": "[4]; 0.01 M phosphate buffer pH 6.0, 180 min", "value": 7.4, "unit": "%"},
      {"measurement": "local coronary arterial wall toxicity: medial necrosis or stent malapposition", "setting": "[5]; any dose group up to approximately 27 μg/mm stent length, any time interval", "value": "no local coronary arterial wall toxicity"},
      {"measurement": "histologic % stenosis vs control", "setting": "[5]; one month, dose group 3", "value": "tendency towards decreased"},
      {"measurement": "absolute intima area vs control", "setting": "[5]; one month, dose groups 3 and 4", "value": "trends for decreases"},
      {"measurement": "intima thickness vs control", "setting": "[5]; one month, dose groups 3 and 4", "value": "trends for decreases"},
      {"measurement": "Intima area normalized to injury score vs control", "setting": "[5]; one month, dose groups 3 and 4 (10 and 27 μg/mm)", "value": "significantly decreased"},
      {"measurement": "neointima formation in stented coronary arteries", "setting": "[5]; one month, locally eluted from stent", "value": "significant inhibitory effect; also recorded: reduced in-stent neointima formation"},
      {"measurement": "extent of endothelial recovery over the stent struts", "setting": "[5]; three days after implant, all dosages, scanning electron microscopy", "value": "did not appear retarded"},
      {"measurement": "persistent inhibitory effect on neointima", "setting": "[5]; three months", "value": "weak tendency"}
    ]},
    {"molecule": "40-epi-N-[2′-pyridone]-rapamycin [Example 2-pyridone]", "values": [
      {"measurement": "AUC", "setting": "[1]", "value": 2550, "unit": "ng·h/mL"}
    ]}
  ]
}
